Reference: patent US8557763B2, “Synthetic peptides that enhance tight junction permeability” (Alba Therapeutics Corporation, priority 2007, dated 2013)
Where no end group is shown, it is not given here. [ ]: non-standard residue; d: D form. AllylGly = C=CC[C@H](N)C(=O)O

Key:
CaCo2 monolayers [1] = assay: Trans Epithelial Electric Resistance (TEER) across CaCo2 monolayers; type: cell-based; set-up: key to Reduced TEER: + indicates an enhancement of the permeability of the tight junctions were observed; − indicates no enhancement of permeability was observed; details: CaCo2 monolayers
From the text: (§1) Agonists of tight junctions can be identified by their ability to enhance the flux of compounds (e.g. ions, Lucifer Yellow) through a cell monolayer that comprises tight junctions; or by their ability to reduce TEER across a cell monolayer that comprises tight junctions. Treatment of CaCo2 monolayers with peptide FCIGRL (SEQ ID NO: 1) led to a 51-fold enhancement of Lucifer Yellow permeability through CaCo2 monolayers compared to vehicle alone.
Treatment of CaCo2 monolayers with peptide FCIGRL led to a 16-fold decrease in TEER across CaCo2 monolayers compared to vehicle alone.
(§2) Tight junction agonists can be identified and tested using the following method:
(§3) Determination of TEER and Lucifer Yellow Flux
(§4) Prepare Modified Hank's Balanced Salt Solution (MHBSS) by obtaining 1 L bottle of HBSS removing 10 ml of HBSS and replacing it with 10 ml HEPES buffer pH 7.0. Adjust pH to 7.4±0.1 using concentrated NaOH (10N).
(§5) Remove CaCo-2 cells from incubator, grown on 12-well, 3.0 μM, polycarbonate Transwell® filters (Corning) and record passage#, date cells seeded and age in days.
(§6) Aspirate cell culture medium from both the apical (AP) and basolateral (BL) compartments, replacing with 0.5 ml and 1.5 ml of MHBSS, respectively. Incubate cells at 37° C. for 30 minutes.
Using the MilliCell®-ERS instrument (Millipore), measure and record the transepithelial electrical resistance (TEER) across each filter and record.
(§7) Aspirate solution from the apical compartment of each filter (n=3 per condition) and replace with 0.5 ml of control and test solutions containing Lucifer Yellow and test compound if appropriate.
(§8) Place all plates into incubator set at 37° C. (±0.2), 50 RPM (±5) for a total of 180 minutes.
At t=30, 60, 120 and 180 minutes, measure and record the transepithelial electrical resistance (TEER) across each filter using the MilliCell-ERS instrument.
(§9) Cells: CaCo-2 cells passage 40-60 grown on Transwell® plates for 21-28 days
(§10) Culture Medium: DMEM supplemented with 10% fetal bovine serum, 1% NEAA, 1% Penn/Strep
(§11) Buffers: Hank's Balanced Salt Solution (HBSS) without calcium and magnesium
(§12) Flasks: 100×20 mm Tissue culture dish Falcon.
(§13) Plates: 12 well polycarbonate Transwell® filters; 0.3 uM pore size

CaCo2 monolayers [2] = assay: Lucifer Yellow (LY) permeability assay through CaCo2 monolayers; type: cell-based; set-up: key to Enhanced LY permeability: + indicates an enhancement of the permeability of the tight junctions were observed; − indicates no enhancement of permeability was observed; details: CaCo2 monolayers, Lucifer Yellow flux
From the text: as §1, §2, §3, §4, §5, §6, §7, §8
At t=60, 120 and 180 minutes remove […] from each basolateral compartment and place it in a 96-well plate for Lucifer Yellow analysis, replace with 100 μl of MHBSS.
Make a Lucifer Yellow standard curve with the following dilutions (7500 μM, 3750 μM, 750 μM, 375 μM, 37.5 μM, 7.5 μM, 3.75 μM, 0.75 μM) and pipette 100 μL of each into a 96-well plate except for the first three standards mentioned above which require a 1:10 dilutions prior to transferring to the 96-well plate.
Harvest the remaining start solutions and what is left in each apical compartment into 1.5 ml vials. Freeze at −20° C. for future analysis.
Analyze each 96-well plate in a Tecan Spectra Fluor Plus using Magellan at 485 and 535 nm.
as §9, §10, §11, §12, §13

Substance | Reduced TEER (CaCo2 monolayers [1]) | Enhanced LY permeability (CaCo2 monolayers [2])
43 (F[AllylGly]IPRL-NH2; N-terminus assumed; SMILES C=CC[C@H](NC(=O)[C@@H](N)Cc1ccccc1)C(=O)N[C@H](C(=O)N1CCC[C@H]1C(=O)N[C@@H](CCCNC(=N)N)C(=O)N[C@@H](CC(C)C)C(N)=O)[C@@H](C)CC) [compound 43] | − | −
76 (F[AllylGly]IGRF-NH2; N-terminus assumed; SMILES C=CC[C@H](NC(=O)[C@@H](N)Cc1ccccc1)C(=O)N[C@H](C(=O)NCC(=O)N[C@@H](CCCNC(=N)N)C(=O)N[C@@H](Cc1ccccc1)C(N)=O)[C@@H](C)CC) [compound 76] | + | +
59 (F[AllylGly]IGGL-NH2; N-terminus assumed; SMILES C=CC[C@H](NC(=O)[C@@H](N)Cc1ccccc1)C(=O)N[C@H](C(=O)NCC(=O)NCC(=O)N[C@@H](CC(C)C)C(N)=O)[C@@H](C)CC) [compound 59] | + | +
21 (I[AllylGly]IGRL-NH2; N-terminus assumed; SMILES C=CC[C@H](NC(=O)[C@@H](N)[C@@H](C)CC)C(=O)N[C@H](C(=O)NCC(=O)N[C@@H](CCCNC(=N)N)C(=O)N[C@@H](CC(C)C)C(N)=O)[C@@H](C)CC) [compound 21] | − | −
90 (F[AllylGly]IGRV-NH2; N-terminus assumed; SMILES C=CC[C@H](NC(=O)[C@@H](N)Cc1ccccc1)C(=O)N[C@H](C(=O)NCC(=O)N[C@@H](CCCNC(=N)N)C(=O)N[C@H](C(N)=O)C(C)C)[C@@H](C)CC) [compound 90] | + | +
6 (Q[AllylGly]IGRL-NH2; N-terminus assumed; SMILES C=CC[C@H](NC(=O)[C@@H](N)CCC(N)=O)C(=O)N[C@H](C(=O)NCC(=O)N[C@@H](CCCNC(=N)N)C(=O)N[C@@H](CC(C)C)C(N)=O)[C@@H](C)CC) [compound 6] | − | −
54 (F[AllylGly]IVRL-NH2; N-terminus assumed; SMILES C=CC[C@H](NC(=O)[C@@H](N)Cc1ccccc1)C(=O)N[C@H](C(=O)N[C@H](C(=O)N[C@@H](CCCNC(=N)N)C(=O)N[C@@H](CC(C)C)C(N)=O)C(C)C)[C@@H](C)CC) [compound 54] | + | −
80 (F[AllylGly]IGRE-NH2; N-terminus assumed; SMILES C=CC[C@H](NC(=O)[C@@H](N)Cc1ccccc1)C(=O)N[C@H](C(=O)NCC(=O)N[C@@H](CCCNC(=N)N)C(=O)N[C@@H](CCC(=O)O)C(N)=O)[C@@H](C)CC) [compound 80] | + | +
56 (F[AllylGly]IGDL-NH2; N-terminus assumed; SMILES C=CC[C@H](NC(=O)[C@@H](N)Cc1ccccc1)C(=O)N[C@H](C(=O)NCC(=O)N[C@@H](CC(=O)O)C(=O)N[C@@H](CC(C)C)C(N)=O)[C@@H](C)CC) [compound 56] | + | +
1 (FCIGRL; Peptide tight junction agonist) [compound 1] | + | +
53 (F[AllylGly]ISRL-NH2; N-terminus assumed; SMILES C=CC[C@H](NC(=O)[C@@H](N)Cc1ccccc1)C(=O)N[C@H](C(=O)N[C@@H](CO)C(=O)N[C@@H](CCCNC(=N)N)C(=O)N[C@@H](CC(C)C)C(N)=O)[C@@H](C)CC) [compound 53] | + | +
55 (F[AllylGly]IGHL-NH2; N-terminus assumed; SMILES C=CC[C@H](NC(=O)[C@@H](N)Cc1ccccc1)C(=O)N[C@H](C(=O)NCC(=O)N[C@@H](Cc1c[nH]cn1)C(=O)N[C@@H](CC(C)C)C(N)=O)[C@@H](C)CC) [compound 55] | − | −
22 (F[AllylGly]PGRL-NH2; N-terminus assumed; SMILES C=CC[C@H](NC(=O)[C@@H](N)Cc1ccccc1)C(=O)N1CCC[C@H]1C(=O)NCC(=O)N[C@@H](CCCNC(=N)N)C(=O)N[C@@H](CC(C)C)C(N)=O) [compound 22] | − | −
12 (Y[AllylGly]IGRL-NH2; N-terminus assumed; SMILES C=CC[C@H](NC(=O)[C@@H](N)Cc1ccc(O)cc1)C(=O)N[C@H](C(=O)NCC(=O)N[C@@H](CCCNC(=N)N)C(=O)N[C@@H](CC(C)C)C(N)=O)[C@@H](C)CC) [compound 12] | − | −
82 (F[AllylGly]IGRY-NH2; N-terminus assumed; SMILES C=CC[C@H](NC(=O)[C@@H](N)Cc1ccccc1)C(=O)N[C@H](C(=O)NCC(=O)N[C@@H](CCCNC(=N)N)C(=O)N[C@@H](Cc1ccc(O)cc1)C(N)=O)[C@@H](C)CC) [compound 82] | + | +
26 (F[AllylGly]SGRL-NH2; N-terminus assumed; SMILES C=CC[C@H](NC(=O)[C@@H](N)Cc1ccccc1)C(=O)N[C@@H](CO)C(=O)NCC(=O)N[C@@H](CCCNC(=N)N)C(=O)N[C@@H](CC(C)C)C(N)=O) [compound 26] | + | +
79 (F[AllylGly]IGRQ-NH2; N-terminus assumed; SMILES C=CC[C@H](NC(=O)[C@@H](N)Cc1ccccc1)C(=O)N[C@H](C(=O)NCC(=O)N[C@@H](CCCNC(=N)N)C(=O)N[C@@H](CCC(N)=O)C(N)=O)[C@@H](C)CC) [compound 79] | − | −
85 (F[AllylGly]IGRM-NH2; N-terminus assumed; SMILES C=CC[C@H](NC(=O)[C@@H](N)Cc1ccccc1)C(=O)N[C@H](C(=O)NCC(=O)N[C@@H](CCCNC(=N)N)C(=O)N[C@@H](CCSC)C(N)=O)[C@@H](C)CC) [compound 85] | + | +
29 (F[AllylGly]GGRL-NH2; N-terminus assumed; SMILES C=CC[C@H](NC(=O)[C@@H](N)Cc1ccccc1)C(=O)NCC(=O)NCC(=O)N[C@@H](CCCNC(=N)N)C(=O)N[C@@H](CC(C)C)C(N)=O) [compound 29] | + | +
15 (W[AllylGly]IGRL-NH2; N-terminus assumed; SMILES C=CC[C@H](NC(=O)[C@@H](N)Cc1c[nH]c2ccccc12)C(=O)N[C@H](C(=O)NCC(=O)N[C@@H](CCCNC(=N)N)C(=O)N[C@@H](CC(C)C)C(N)=O)[C@@H](C)CC) [compound 15] | − | +
87 (F[AllylGly]IGRI-NH2; N-terminus assumed; SMILES C=CC[C@H](NC(=O)[C@@H](N)Cc1ccccc1)C(=O)N[C@H](C(=O)NCC(=O)N[C@@H](CCCNC(=N)N)C(=O)N[C@H](C(N)=O)[C@@H](C)CC)[C@@H](C)CC) [compound 87] | + | +
10 (E[AllylGly]IGRL-NH2; N-terminus assumed; SMILES C=CC[C@H](NC(=O)[C@@H](N)CCC(=O)O)C(=O)N[C@H](C(=O)NCC(=O)N[C@@H](CCCNC(=N)N)C(=O)N[C@@H](CC(C)C)C(N)=O)[C@@H](C)CC) [compound 10] | − | −
